Patent US6403600B1, “Methoximinophenylacetic acid amides” (Bayer Aktiengesellschaft, priority 1998, dated 2002)

Experiment: logP determination by HPLC (EEC-Directive 79/831 Annex V. A8)
Format: physicochemical
Details: gradient method, acetonitrile/0.1% aqueous phosphoric acid

Row | logP | chromatographic logP | Structure (SMILES)
1 | 5.36 | – | CCSCc1ccccc1Oc1ncnc(Oc2ccccc2C(=NOC)C(=O)N(C)SC(F)(Cl)Cl)c1F [Example 95]
2 | 4.22 | – | CON=C(C(=O)N(C)SC)c1ccccc1COc1ccccc1C [Example 54]
3 | 5.77 | – | CON=C(C(=O)N(C)SC(F)(Cl)Cl)c1ccccc1COc1cccc(-c2ccccc2)c1 [Example 65]
4 | 5.5 | – | CON=C(C(=O)N(C)Sc1cccc(C(F)(F)F)c1)c1ccccc1COc1ccccc1C [Example 22]
5 | – | 6.1 | CON=C(C(=O)N(C)SN(C)C(=O)C(=NOC)c1ccccc1COc1ccccc1C)c1ccccc1COc1ccccc1C [Example 45]
6 | 3.29 | – | CNC(=O)N(C)C(=O)C(=NOC)c1ccccc1COc1ccccc1C [Example 31]
7 | 4.68 | – | CON=C(C(=O)N(C)SC(F)(Cl)Cl)c1ccccc1Oc1ncnc(Oc2ccc(N)c(Cl)c2Cl)c1F [Example 136]
8 | 4.7 | – | CON=C(C(=O)N(C)SC(F)(Cl)Cl)c1ccccc1CON=C(C)c1ccc(OC)c(OC)c1 [Example 79]
9 | 4.75 | – | CON=C(C(=O)N(C)SC(=O)OC)c1ccccc1CON=C(C)c1cccc(C(F)(F)F)c1 [Example 40]
10 | 5.3 | – | CCN(SC(F)(F)F)C(=O)C(=NOC)c1ccccc1COc1ccccc1C [Example 62]
11 | 5.11 | – | CON=C(C(=O)N(C)SC(F)(Cl)Cl)c1ccccc1Oc1ncnc(Oc2cccc(C(F)(F)F)c2)c1F [Example 106]
12 | 4.71 | – | CON=C(C(=O)N(C)SC(F)(Cl)Cl)c1ccccc1Oc1ncnc(Oc2cccc(C)c2[N+](=O)[O-])c1F [Example 113]
13 | 4.76 | – | CON=C(C(=O)N(C)SC(F)(Cl)Cl)c1ccccc1Oc1ncnc(Oc2cccc(F)c2)c1F [Example 118]
14 | 5.99 | – | CON=C(C(=O)N(C)Sc1ccc(OC(F)(F)F)c(Cl)c1)c1ccccc1COc1ccccc1C [Example 23]
15 | 5.8 | – | CON=C(C(=O)N(C)Sc1ccc(Cl)c(C(F)(F)F)c1)c1ccccc1COc1ccccc1C [Example 25]
16 | 5.35 | – | CON=C(C(=O)N(C)SC(F)(Cl)Cl)c1ccccc1COc1ccccc1C [Example 5]
17 | 5.87 | – | CON=C(C(=O)N(C)SC(F)(Cl)Cl)c1ccccc1Oc1ccc(OC(F)(F)F)cc1Cl [Example 44]
18 | 5.35 | – | CCOC(=O)N(SC(F)(Cl)Cl)C(=O)C(=NOC)c1ccccc1COc1ccccc1C [Example 30]
19 | 4.31 | – | CON=C(C(=O)N(C)Sc1ccc(OC)cc1)c1ccccc1Oc1ccccc1 [Example 48]
20 | 5.76 | – | CCc1cc(C)cc(Oc2ncnc(Oc3ccccc3C(=NOC)C(=O)N(C)SC(F)(Cl)Cl)c2F)c1 [Example 137]
21 | 4.85 | – | CON=C(C(=O)N(C)SC(F)(Cl)Cl)c1ccccc1Oc1ncnc(Oc2ccc(F)cc2F)c1F [Example 116]
22 | 5.3 | – | C=CCc1ccccc1Oc1ncnc(Oc2ccccc2C(=NOC)C(=O)N(C)SC(F)(Cl)Cl)c1F [Example 122]
23 | 5.3 | – | CON=C(C(=O)N(C)SC(F)(Cl)Cl)c1ccccc1Oc1ncnc(Oc2ccc(OC(F)(F)F)cc2)c1F [Example 133]
24 | 4.97 | – | CON=C(C(=O)N(C)SC(F)(F)F)c1ccccc1CON=C(C)c1cccc(F)c1 [Example 84]
25 | – | 5.1 | CON=C(C(=O)N(C)SC(F)(Cl)Cl)c1ccccc1Oc1ncnc(Oc2ccccc2Br)c1F [Example 2, 2-{2-[6-(2-bromo-phenoxy)-5-fluoro-pyrimidin-4-yloxy]-phenyl}-N-(dichlorofluoro-methyl-sulphanyl)-2-methoxyimino-N-methylacetamide]
26 | 3.96 | – | CON=C(C(=O)N(C)C(=O)C(=O)OC)c1ccccc1COc1ccccc1C [Example 26]

Row | logP | chromatographic logP | Structure (SMILES)
27 | 5.08 | – | CON=C(C(=O)N(C)SC(F)(Cl)Cl)c1ccccc1Oc1ncnc(Oc2ccc(OC(F)(F)F)cc2Cl)c1F [Example 99]
28 | 3.34 | – | CON=C(C(=O)NC#N)c1ccccc1COc1ccccc1C [Example 4]
29 | 5.56 | – | CON=C(C(=O)N(C)SC(Cl)(Cl)Cl)c1ccccc1COc1ccccc1C [Example 6]
30 | 5.46 | – | CON=C(C(=O)N(C)SC(F)(Cl)Cl)c1ccccc1Oc1ncnc(Oc2cc(Cl)ccc2C)c1F [Example 125]
31 | 3.7 | – | CON=C(C(=O)N(C)SC(=O)OC)c1ccccc1CON=C(C)c1ccc(OC)c(OC)c1 [Example 82]
32 | 4.36 | – | CON=C(C(=O)N(C)SC(F)(F)F)c1ccccc1CON=C(C)c1ccc(OC)c(OC)c1 [Example 80]
33 | 5.27 | – | CON=C(C(=O)N(C)SC(F)(Cl)Cl)c1ccccc1Oc1ncnc(Oc2cccc3c2OC(C)(C)C3)c1F [Example 96]
34 | 5.34 | – | CON=C(C(=O)N(C)SC(F)(Cl)Cl)c1ccccc1Oc1ncnc(Oc2cccc(C)c2C)c1F [Example 92]
35 | 5.36 | – | CON=C(C(=O)N(C)SC(F)(Cl)Cl)c1ccccc1CON=C(C)c1cccc(F)c1 [Example 83]
36 | 4.76 | – | CON=C(C(=O)N(C)SC(F)(Cl)Cl)c1ccccc1Oc1ncnc(Oc2ccccc2)c1F [Example 88]
37 | 4.98 | – | CON=C(C(=O)N(C)SC(F)(Cl)Cl)c1ccccc1Oc1ncnc(Oc2cccc(C)c2)c1F [Example 128]
38 | 4.71 | – | CON=C(C(=O)N(C)SC(=O)OC)c1ccccc1CON=C(C)c1cccc(Cl)c1 [Example 81]
39 | 3.67 | – | CON=C(C(=O)N(C)C#N)c1ccccc1COc1ccccc1C [Example 10]
40 | 5.21 | – | CON=C(C(=O)N(C)C(=O)OCC(C)C)c1ccccc1COc1ccccc1C [Example 14]
41 | 5.36 | – | CON=C(C(=O)N(C)SC(F)(F)F)c1ccccc1COc1cccc(-c2ccccc2)c1 [Example 66]
42 | 5.25 | – | CON=C(C(=O)N(C)SC(F)(F)F)c1ccccc1COc1cc(C)ccc1C [Example 68]
43 | 4.6 | – | CON=C(C(=O)N(C)C(=O)OCCBr)c1ccccc1COc1ccccc1C [Example 37]
44 | 4.68 | – | CON=C(C(=O)N(C)SC(F)(Cl)Cl)c1ccccc1Oc1ncnc(Oc2cccc(OC)c2)c1F [Example 130]
45 | 5.05 | – | CON=C(C(=O)N(C)SC(C)(C)C)c1ccccc1COc1ccccc1C [Example 55]
46 | 6.21 | – | CON=C(C(=O)N(C)C(=O)N(SC(F)(Cl)Cl)c1ccc(Cl)cc1)c1ccccc1COc1ccccc1C [Example 34]
47 | 4.28 | – | CON=C(C(=O)N(C)SC(F)(Cl)Cl)c1ccccc1Oc1ncnc(Oc2ccccc2C#N)c1F [Example 119]
48 | 6.61 | – | CON=C(C(=O)N(SC(F)(Cl)Cl)SC(F)(Cl)Cl)c1ccccc1COc1ccccc1C [Example 51]
49 | 5.41 | – | CON=C(C(=O)N(C)SC(F)(Cl)Cl)c1ccccc1Oc1ncnc(Oc2ccc(C)cc2C)c1F [Example 90]
50 | 5.11 | – | CON=C(C(=O)N(C)Sc1ccccc1)c1ccccc1COc1ccccc1C [Example 21]
51 | – | 4.25 | CON=C(C(=O)N(C)SC(=O)OC)c1ccccc1COc1ccccc1C [Example 1, 2-methoximino-2-[2-(methylphenoxy)-methylphenyl]-N-methyl-N-methoxycarbonylthio-acetamide]
52 | 5.84 | – | CON=C(C(=O)N(C)SC(F)(Cl)Cl)c1ccccc1Oc1ncnc(Oc2cccc(C(C)(C)C)c2)c1F [Example 132]

Row | logP | chromatographic logP | Structure (SMILES)
53 | 5.45 | – | CON=C(C(=O)N(C)SC(F)(Cl)Cl)c1ccccc1Oc1ncnc(OC)c1F [Example 145]
54 | 4.53 | – | CON=C(C(=O)N(C)C(=O)N(C)SC(F)(Cl)Cl)c1ccccc1Oc1ccccc1 [Example 49]
55 | 5.74 | – | CCN(SC(F)(Cl)Cl)C(=O)C(=NOC)c1ccccc1COc1ccccc1C [Example 53]
56 | 5.38 | – | CCc1ccc(Oc2ncnc(Oc3ccccc3C(=NOC)C(=O)N(C)SC(F)(Cl)Cl)c2F)cc1 [Example 131]
57 | 5.73 | – | CON=C(C(=O)N(C)SC(F)(Cl)Cl)c1ccccc1Oc1ncnc(Oc2ccccc2C(C)(C)C)c1F [Example 111]
58 | 4.57 | – | CON=C(C(=O)N(C)SC(F)(Cl)Cl)c1ccccc1Oc1ncnc(Oc2ccccc2OC)c1F [Example 129]
59 | 3.59 | – | CCOC(=O)N(C)C(=O)C(=NOC)c1ccccc1Oc1ccccc1 [Example 41]
60 | 4.05 | – | CCS(=O)(=O)N(C)C(=O)N(C)C(=O)C(=NOC)c1ccccc1COc1ccccc1C [Example 35]
61 | 5.36 | – | CON=C(C(=O)N(C)SC(F)(F)F)c1ccccc1CON=C(C)c1cccc(C(F)(F)F)c1 [Example 75]
62 | 5.86 | – | CCC(C)c1ccccc1Oc1ncnc(Oc2ccccc2C(=NOC)C(=O)N(C)SC(F)(Cl)Cl)c1F (stereo not shown) [Example 134]
63 | 5.81 | – | CON=Cc1cccc(Oc2ncnc(Oc3ccccc3C(=NOC)C(=O)N(C)SC(F)(Cl)Cl)c2F)c1 [Example 100]
64 | 5.6 | – | CON=C(C(=O)N(C)SC(F)(Cl)Cl)c1ccccc1Oc1ncnc(Oc2ccc(SC(F)(F)F)cc2)c1F [Example 139]
65 | 5.71 | – | CON=C(C(=O)N(C)SC(F)(Cl)Cl)c1ccccc1Oc1ncnc(Oc2cc(Cl)cc(Cl)c2)c1F [Example 103]
66 | 5.34 | – | CON=C(C(=O)N(C)SC(F)(Cl)Cl)c1ccccc1Oc1ncnc(Oc2cc(C)ccc2C)c1F [Example 121]
67 | 5.39 | – | CON=C(C(=O)N(C)SC(F)(Cl)Cl)c1ccccc1Oc1ncnc(Oc2cccc(Br)c2)c1F [Example 101]
68 | 4.11 | – | CON=C(C(=O)N(C)C(=O)OC)c1ccccc1COc1ccccc1C [Example 33]
69 | 5.22 | – | CON=C(C(=O)N(C)C(=O)N(C)SC(F)(F)F)c1ccccc1CON=C(C)c1cccc(C(F)(F)F)c1 [Example 76]
70 | 5.56 | – | CON=C(C(=O)N(C)SC(F)(Cl)Cl)c1ccccc1Oc1ncnc(Oc2ccccc2C(C)C)c1F [Example 123]
71 | 3.38 | – | CON=C(C(=O)N(C)C(=O)N(C)C)c1ccccc1COc1ccccc1C [Example 17]
72 | 4.48 | – | CON=C(C(=O)N(C)SC(F)(F)F)c1ccccc1COc1cc(F)ccc1F [Example 70]
73 | 5.08 | – | CON=C(C(=O)N(C)C(=O)N(C)SC(F)(Cl)Cl)c1ccccc1COc1ccccc1C [Example 16]
74 | 4.02 | – | CCOCN(C)C(=O)C(=NOC)c1ccccc1COc1ccccc1C [Example 19]
75 | 5.05 | – | CON=C(C(=O)N(C)SC(F)(Cl)Cl)c1ccccc1Oc1ncnc(Oc2ccccc2Cl)c1F [Example 3]
76 | 5.76 | – | CON=C(C(=O)N(C)SC(F)(Cl)Cl)c1ccccc1Oc1ncnc(Oc2ccc(Cl)cc2Cl)c1F [Example 102]
